The values that follow come from patent publication US20260297105A1, “RAF-MEK PROTEIN COMPLEX MODULATORS AND METHODS OF USE THEREOF” (GANDEEVA THERAPEUTICS, INC., priority 2023, published 2026).

In general, IC50 refers to the concentration that inhibits the measured activity by half.

One test concerns the target T1, MEK1 (Homo sapiens, UniProt Q02750).
T1 construct: purchased SignalChem M02-14H
In words: MEK1 kinase cascade assay (ADP-Glo), inhibition of MEK1 kinase activity. The following applies: 25 nM BRAF, 6.25 nM MEK1, 0.5 μM ERK, 1 mM ATP; 20 min preincubation, 1 hr at 25° C.; read-out: BRAF ADP Glo kinase assay V3 (IC50). Format: biochemical. Put shortly: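 Cascade format with ADP-Glo read-out: BRAF (25 nM) and compound, 1% DMSO, 20 mins at 25° C, then MEK1 6.25 nM, ERK1 0.5 μM, ATP 1 mM for 1 hr at 25° C in HEPES pH 7.5 buffer with MgCl2, CHAPS and DTT. Percent inhibition, scaled between DMSO and 1 μM Trametinib, was fit by 4-parameter logistic to give IC50 (2 replicate wells).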
In general terms: ADP-Glo turns the ADP formed in a reaction into a luminescent signal.

Another test deals with BRAF-MEK1. Put plainly: BRAF-MEK TR-FRET assay, stabilization of MEK1 and BRAF interaction. The following applies: 4 nM BRAF, 10 nM MEK, 100 μM ATP, 1 hr at 25° C., read-out: BRAF-MEK TR-FRET Assay (EC50, fold stabilization). The class given is binding. The text has this:
Protein expression and purification: BRAF (445-723) with N-term His-tag and C-term StrepII tag was expressed using the Expi293 system (ThermoFisher) and purified using Strep-Tactin® XT-Superflow (IBA) chromatography. ERK1 (full-length) with N-term His-tag was expressed in Rosetta DE3 cells (Millipore) and purified using HisTrap HP (Cytiva) and Superdex 200 (Cytiva) column chromatography. Full-length MEK1 for TR-FRET assays with N-term His-tag was expressed in BL21DE3 cells (ThermoFisher) and purified using HisTrap HP (Cytiva) and Superdex 200 (Cytiva) column chromatography.
Efficacy of exemplary compounds in stabilization of MEK1 and BRAF interaction: Compound stabilization of BRAF-MEK interaction was evaluated using TR-FRET (Time Resolved Fluorescence Energy Transfer). The FRET assay consisted of His-tagged MEK1 (produced in-house), GST-tagged BRAF (SignalChem, B08-11G), Anti His-Tb Cryptate donor, and Anti GST-XL665 acceptor fluorophores (PerkinElmer) to generate FRET signal upon BRAF-MEK1 binding. Compounds were prepared from DMSO stocks in assay buffer (50 mM Tris pH 7.5, 150 mM NaCl, 1 mM DTT, 0.05% Tween-20, 5 mM MgCl2, and 100 μM ATP) and incubated with 4 nM BRAF and 10 nM MEK for 1 hr at 25° C. 1 ng Anti His-Tb Cryptate/20 ng Anti GST-XL665 premix was then added and incubated for 1 hr at 25° C. TR-FRET was measured using Cytation5 microplate reader (Agilent) using Ex/Em=340/620 nm and Ex/Em=340/665 nm to determine the FRET ratio. Fold stabilization was calculated as FRET signal of treated well/DMSO control. Fold stabilization as a function of compound concentration from 2 replicate wells was fit with a 4-parameter logistic curve equation using GraphPad Prism or CDD Vault to derive EC50 values.
In this table, for the BRAF ADP Glo kinase assay, “A” indicates IC50 of less than 5 nM; “B” indicates IC50 of between 5 nM to 50 nM; and “C” indicates IC50 of between 50 nM to 500 nM. “D” indicates IC50 of greater than 500 nM. For the BRAF-MEK TR-FRET assay, “A” indicates EC50 of less than 50 nM; “B” indicates EC50 of between 50 nM to 200 nM; and “C” indicates EC50 of between 200 nM to 1 μM. “D′” indicates EC50 of greater than 1 μM. For the AlphaLisa P-ERK assay, “A” indicates IC50 of less than 1 nM; “B” indicates IC50 of between 1 nM to 10 nM; and “C” indicates IC50 of between 10 nM to 100 nM. “D” indicates IC50 of greater than 100 nM. For the cell viability assay, “A” indicates IC50 of less than 1 nM; “B” indicates IC50 of between 1 nM to 10 nM; and “C” indicates IC50 of between 10 nM to 100 nM. “D” indicates IC50 of greater than 100 nM.
(Time-resolved FRET reads energy transfer from a long-lived donor to a nearby acceptor.)

Read-outs that look alike come from different tables or passages of the source.

T1 sequence (Q02750 whole entry): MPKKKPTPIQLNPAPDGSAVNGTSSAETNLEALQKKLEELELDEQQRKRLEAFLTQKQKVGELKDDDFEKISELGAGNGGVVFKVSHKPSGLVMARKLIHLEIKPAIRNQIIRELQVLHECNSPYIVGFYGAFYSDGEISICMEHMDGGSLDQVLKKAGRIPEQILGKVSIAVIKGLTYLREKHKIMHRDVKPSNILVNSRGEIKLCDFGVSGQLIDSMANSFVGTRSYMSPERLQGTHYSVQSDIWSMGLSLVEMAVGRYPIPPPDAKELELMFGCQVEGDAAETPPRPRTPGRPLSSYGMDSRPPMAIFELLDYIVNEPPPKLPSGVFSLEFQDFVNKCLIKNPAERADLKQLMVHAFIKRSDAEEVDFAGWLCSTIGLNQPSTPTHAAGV
T1 sequence (P15056 445-723 partner limits assumed): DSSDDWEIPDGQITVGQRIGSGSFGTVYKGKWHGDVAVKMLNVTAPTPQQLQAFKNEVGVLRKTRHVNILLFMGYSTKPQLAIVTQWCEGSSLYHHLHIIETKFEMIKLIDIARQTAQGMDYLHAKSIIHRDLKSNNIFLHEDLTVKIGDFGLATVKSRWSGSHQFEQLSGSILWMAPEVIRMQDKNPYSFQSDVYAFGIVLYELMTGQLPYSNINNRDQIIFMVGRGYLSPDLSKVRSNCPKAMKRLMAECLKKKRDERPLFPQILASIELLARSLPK

Consider `CNS(=O)(=O)Nc1cccc(CN2C(=O)Oc3cc(Oc4cccnn4)ccc3C23CC3)c1F` [Compound 196, 3-{[2-fluoro-3-(methylaminosulfonylamino)phenyl]methyl}-7-(3-pyridazinyloxy)-2H,3H-spiro[1,3-benzoxazine-4,1′-cyclopropan]-2-one], for which the half-maximal inhibitory concentration (IC50) at MEK1 is less than 0.005 µM. The EC50 with BRAF-MEK1 is less than 0.05 µM.

Regarding `CNS(=O)(=O)Nc1nccc(CN2C(=O)Oc3cc(Oc4nccnn4)cnc3[C@@H]2C)c1F` (stereo in doubt) [Compound 198, 3-{[3-fluoro-2-(methylaminosulfonylamino)-4-pyridyl]methyl}-4-methyl-7-(1,2,4-triazin-3-yloxy)-3,4-dihydro-2H-1-oxa-3,5-diazanaphthalen-2-one], the IC50 on MEK1 was in the range of 0.005 to 0.05 µM. In addition, the EC50 in the test on BRAF-MEK1 (60 min) is less than 0.05 µM.

On to `CNS(=O)(=O)Nc1cccc(CN2Cc3cc(F)c(OC(=O)N(C)C)c(F)c3OC2=O)c1F` [Compound 96, 6,8-difluoro-3-(2-fluoro-3-((N-methylsulfamoyl)amino)benzyl)-2-oxo-3,4-dihydro-2H-benzo[e][1,3]oxazin-7-yl dimethylcarbamate], for which the IC50 at MEK1 was less than 0.005 µM. In the test with BRAF-MEK1, the EC50 was 0.05 to 0.2 µM.

`CNS(=O)(=O)Nc1cccc(CN2Cc3ccc(Oc4ncco4)c(F)c3OC2=O)c1F` [Compound 91, 8-fluoro-3-{[2-fluoro-3-(methylaminosulfonylamino)phenyl]methyl}-7-(1,3-oxazol-2-yloxy)-3,4-dihydro-2H-1,3-benzoxazin-2-one]: the IC50 on MEK1 is less than 0.005 µM. Further, the EC50 in the test on BRAF-MEK1 fell in the range of 0.2 to 1 µM.

As for `CNS(=O)(=O)Nc1cccc(CN2C(=O)Oc3cc(OC(=O)N(C)C)ccc3C23CNC3)c1F` [Compound 49], the IC50 at MEK1 was 0.005 to 0.05 µM. In addition, the EC50 in the test on BRAF-MEK1 fell in the range of 0.2 to 1 µM.

With `CN(C)S(=O)(=O)Nc1cccc(CN2C(=O)Oc3cc(Oc4cccnn4)ccc3C2(C)C)c1F` [Compound 34, 3-{[3-(dimethylaminosulfonylamino)-2-fluorophenyl]methyl}-4,4-dimethyl-7-(3-pyridazinyloxy)-3,4-dihydro-2H-1,3-benzoxazin-2-one], the IC50 at MEK1 is less than 0.005 µM. Further, the EC50 in the test on BRAF-MEK1 lay in the range of 0.2 to 1 µM.

As for `CN(C)S(=O)(=O)Nc1cccc(CN2C(=O)Oc3cc(Oc4cccnn4)ccc3C23CCC3)c1F` [Compound 25, 3-{[3-(dimethylaminosulfonylamino)-2-fluorophenyl]methyl}-7-(3-pyridazinyloxy)-2H,3H-spiro[1,3-benzoxazine-4,1′-cyclobutan]-2-one], on MEK1, the concentration for half-maximal inhibition (IC50) was less than 0.005 µM. For the same molecule, in the test with BRAF-MEK1, the EC50 is less than 0.05 µM.

As for `O=C1Oc2c(ccc(Oc3nccnn3)c2F)C2(CCC2)N1Cc1ccnc(NS(=O)(=O)C2CC2)c1F` [Compound 187, (cyclopropylsulfonyl)[3-fluoro-4-({8-fluoro-2-oxo-7-(1,2,4-triazin-3-yloxy)-2H,3H-spiro[1,3-benzoxazine-4,1′-cyclobutan]-3-yl}methyl)-2-pyridyl]amine], the IC50 on MEK1 was 0.005 to 0.05 µM. Further, the EC50 in the test with BRAF-MEK1 lay within 0.05 to 0.2 µM.

On to `CN(C)S(=O)(=O)Nc1cccc(CN2Cc3ccc(Oc4cccnn4)cc3OC2=O)c1F` [Compound 37, 3-{[3-(dimethylaminosulfonylamino)-2-fluorophenyl]methyl}-7-(3-pyridazinyloxy)-3,4-dihydro-2H-1,3-benzoxazin-2-one], for which the IC50 on MEK1 is 0.005 to 0.05 µM. Further, the EC50 in the test with BRAF-MEK1 fell in the range of 0.05 to 0.2 µM.

For `O=C1Oc2c(ccc(Oc3cccnn3)c2F)C2(CCC2)N1Cc1ccnc(NS(=O)(=O)C2CC2)c1F` [Compound 184, (cyclopropylsulfonyl)[3-fluoro-4-({8-fluoro-2-oxo-7-(3-pyridazinyloxy)-2H,3H-spiro[1,3-benzoxazine-4,1′-cyclobutan]-3-yl}methyl)-2-pyridyl]amine], the IC50 at MEK1 is 0.05 to 0.5 µM. Further, the EC50 in the test on BRAF-MEK1 was in the range of 0.05 to 0.2 µM.

On to `C[C@H]1c2ccc(Oc3cccnn3)c(F)c2OC(=O)N1Cc1cccc(NS(=O)(=O)N(C)C)c1F` (single isomer, unassigned) [Compound 44], for which the 50% inhibitory concentration (IC50) at MEK1 is less than 0.005 µM. For the same molecule, in the test with BRAF-MEK1, the EC50 was 0.2 to 1 µM.

Turning to `CNS(=O)(=O)Nc1cccc(CN2C(=O)Oc3cc(Oc4cccnn4)cnc3[C@H]2C)c1F` (stereo in doubt) [Compound 175], the IC50 on MEK1 is 0.005 to 0.05 µM. The EC50 in the test on BRAF-MEK1 was 0.05 to 0.2 µM.

In the case of `CNS(=O)(=O)Nc1nccc(CN2C(=O)Oc3cc(Oc4ncco4)c(F)cc3C2C)c1F` (single isomer, unassigned) [Compound 185, 6-fluoro-3-{[3-fluoro-2-(methylaminosulfonylamino)-4-pyridyl]methyl}-4-methyl-7-(1,3-oxazol-2-yloxy)-3,4-dihydro-2H-1,3-benzoxazin-2-one], at MEK1, the IC50 was 0.005 to 0.05 µM. In addition, in the test on BRAF-MEK1 (60 min), the EC50 fell in the range of 0.05 to 0.2 µM.

With `CN(C)S(=O)(=O)Nc1nccc(CN2C(=O)Oc3cc(Oc4cccnn4)ccc3C23CCC3)c1F` [Compound 181, 3-{[2-(dimethylaminosulfonylamino)-3-fluoro-4-pyridyl]methyl}-7-(3-pyridazinyloxy)-2H,3H-spiro[1,3-benzoxazine-4,1′-cyclobutan]-2-one], the IC50 on MEK1 was in the range of 0.005 to 0.05 µM. For the same molecule, in the test on BRAF-MEK1, the EC50 lay in the range of 0.2 to 1 µM.

On to `O=C1Oc2c(ccc(Oc3ncco3)c2F)C2(CCC2)N1Cc1ccnc(NS(=O)(=O)C2CC2)c1F` [Compound 183, (cyclopropylsulfonyl)[3-fluoro-4-({8-fluoro-7-(1,3-oxazol-2-yloxy)-2-oxo-2H,3H-spiro[1,3-benzoxazine-4,1′-cyclobutan]-3-yl}methyl)-2-pyridyl]amine], for which, on MEK1, the concentration for half-maximal inhibition (IC50) is 0.05 to 0.5 µM. For the same molecule, the EC50 with BRAF-MEK1 lay within 0.2 to 1 µM.

Regarding `CNS(=O)(=O)Nc1cccc(CN2Cc3cc(F)c(OC(=O)N(C)C)cc3OC2=O)c1F` [Compound 120, 6-fluoro-3-(2-fluoro-3-((N-methylsulfamoyl)amino)benzyl)-2-oxo-3,4-dihydro-2H-benzo[e][1,3]oxazin-7-yl dimethylcarbamate], on MEK1, the IC50 is less than 0.005 µM. The EC50 in the test with BRAF-MEK1 lay within 0.05 to 0.2 µM.

Regarding `CNS(=O)(=O)Nc1cc(F)cc(CN2C(=O)Oc3cc(Oc4cccnn4)ccc3C23CCC3)c1F` [Compound 194, 3-{[2,5-difluoro-3-(methylaminosulfonylamino)phenyl]methyl}-7-(3-pyridazinyloxy)-2H,3H-spiro[1,3-benzoxazine-4,1′-cyclobutan]-2-one], the IC50 at MEK1 lay in the range of 0.005 to 0.05 µM. Besides, the EC50 in the test on BRAF-MEK1 is 0.05 to 0.2 µM.

For `CNS(=O)(=O)Nc1cccc(CN2C(=O)Oc3c(ccc(OC(=O)N(C)C)c3F)[C@H]2C)c1F` (single isomer, unassigned) [Compound 104, (R)-8-fluoro-3-(2-fluoro-3-((N-methylsulfamoyl)amino)benzyl)-4-methyl-2-oxo-3,4-dihydro-2H-benzo[e][1,3]oxazin-7-yl dimethylcarbamate or (S)-8-fluoro-3-(2-fluoro-3-((N-methylsulfamoyl)amino)benzyl)-4-methyl-2-oxo-3,4-dihydro-2H-benzo[e][1,3]oxazin-7-yl dimethylcarbamate], the IC50 on MEK1 was 0.005 to 0.05 µM. In the test with BRAF-MEK1, the EC50 is 0.2 to 1 µM.

`CN(C)C(=O)Oc1ccc2c(c1)OC(=O)N(Cc1cccc(NS(=O)(=O)N3CCC(C(N)=O)C3)c1F)C2` (centres unmarked) [Compound 28, 3-[(3-{[(3-carbamoylpyrrolidin-1-yl)sulfonyl]amino}-2-fluorophenyl)methyl]-2-oxo-3,4-dihydro-2H-1,3-benzoxazin-7-yl N,N-dimethylcarbamate]: the IC50 at MEK1 lay within 0.005 to 0.05 µM. Further, in the test on BRAF-MEK1, the EC50 was in the range of 0.2 to 1 µM.
